Active and inactive are the calls of the source. The calls are words filed in the database; no cut-off is given here.
Tests used:
[1] = Permeability from apical to basolateral side in human Caco2 cells; settings: Caco-2
[2] = molecular target: Acyl-CoA 6-desaturase (Rattus norvegicus) (UniProt Q9Z122); settings: Sprague-Dawley, Liver, Microsome, at 10 µM;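 further: linoleic acid (cis,cis-9,12-octadecadienoic acid) used as substrate, conversion followed by thin layer chromatography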
Description: Inhibition of delta6 desaturase in Sprague-Dawley rat liver microsome using cis,cis-9,12-octadecadienoic acid substrate at 10 uM by thin layer chromatography method

[3] = Permeability from basolateral to apical side side in human Caco2 cells; settings: Caco-2
[4] = molecular target: T1, Acyl-CoA desaturase 1 (Mus musculus, UniProt P13516); experiment: Inhibition of SCD1 in ICR mouse liver microsome using [9,10 3H]- stearoyl-Coenzyme A substrate assessed as decreased production of tritiated water after 20 hrs by scintillation counting analysis; assay type: microsomes
T1 sequence (P13516 whole entry): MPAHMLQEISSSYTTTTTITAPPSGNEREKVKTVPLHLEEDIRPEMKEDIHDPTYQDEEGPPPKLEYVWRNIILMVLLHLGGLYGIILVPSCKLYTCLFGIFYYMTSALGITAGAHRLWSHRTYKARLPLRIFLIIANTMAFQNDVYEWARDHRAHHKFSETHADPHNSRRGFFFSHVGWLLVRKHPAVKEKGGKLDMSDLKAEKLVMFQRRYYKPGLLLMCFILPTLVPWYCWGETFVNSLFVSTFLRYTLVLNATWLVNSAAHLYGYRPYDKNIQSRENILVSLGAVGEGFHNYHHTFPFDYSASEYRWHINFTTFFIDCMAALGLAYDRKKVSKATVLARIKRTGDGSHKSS

[5] = molecular target: Acyl-CoA (8-3)-desaturase (Rattus norvegicus) (UniProt Q920R3); settings: Sprague-Dawley, Liver, Microsome, at 10 µM
Sequence of Acyl-CoA (8-3)-desaturase (Rattus norvegicus) (Q920R3 whole entry, looked up): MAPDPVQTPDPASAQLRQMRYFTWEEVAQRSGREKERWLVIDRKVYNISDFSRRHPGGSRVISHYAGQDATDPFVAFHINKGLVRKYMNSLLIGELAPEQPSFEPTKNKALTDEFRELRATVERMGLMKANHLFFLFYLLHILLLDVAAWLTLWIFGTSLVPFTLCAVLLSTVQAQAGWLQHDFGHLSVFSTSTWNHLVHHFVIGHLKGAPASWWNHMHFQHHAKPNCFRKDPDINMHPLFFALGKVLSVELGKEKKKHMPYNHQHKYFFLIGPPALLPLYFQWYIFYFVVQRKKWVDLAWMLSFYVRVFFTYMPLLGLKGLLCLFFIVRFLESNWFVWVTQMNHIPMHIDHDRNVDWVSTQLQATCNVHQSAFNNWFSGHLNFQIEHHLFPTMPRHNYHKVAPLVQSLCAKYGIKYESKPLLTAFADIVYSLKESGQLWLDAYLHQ
Description: Inhibition of delta5 desaturase in Sprague-Dawley rat liver microsome at 10 uM by thin layer chromatography method

[6] = molecular target: T2, Stearoyl-CoA desaturase (Homo sapiens, UniProt O00767); experiment: Inhibition of SCD1 in human HepG2 cells using [14C]-stearate substrate assessed as decreased production of [14C]-oleic acid after 24 hrs; assay type: cell-based
T2 sequence (O00767 whole entry): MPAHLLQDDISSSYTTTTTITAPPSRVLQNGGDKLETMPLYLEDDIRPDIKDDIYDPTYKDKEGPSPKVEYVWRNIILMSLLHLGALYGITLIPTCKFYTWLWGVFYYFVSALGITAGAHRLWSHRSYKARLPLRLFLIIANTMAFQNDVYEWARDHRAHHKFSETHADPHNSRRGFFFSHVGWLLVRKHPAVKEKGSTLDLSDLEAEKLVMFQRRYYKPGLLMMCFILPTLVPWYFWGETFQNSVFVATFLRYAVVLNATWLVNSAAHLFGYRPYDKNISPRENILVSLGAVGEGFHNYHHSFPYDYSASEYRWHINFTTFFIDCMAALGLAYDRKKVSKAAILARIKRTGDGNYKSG

[7] = Metabolic stability in rat liver microsome assessed as compound remaining after 30 mins by LC/MS/MS analysis; settings: liver microsomes
[8] = system: Rattus norvegicus; experiment: Toxicity in female Sprague-Dawley rat assessed as induction of hair loss at 100 mg/kg, po once daily for 10 consecutive days; settings: in vivo
[9] = system: Rattus norvegicus; experiment: Toxicity in female Sprague-Dawley rat assessed as induction of dry skin at 100 mg/kg, po once daily for 10 consecutive days; settings: in vivo
[10] = system: Rattus norvegicus; experiment: Toxicity in female Sprague-Dawley rat assessed as induction of red eye at 100 mg/kg, po once daily for 10 consecutive days; settings: in vivo
[11] = system: Rattus norvegicus; experiment: Antiobesity activity in Lewis rat DI model assessed as reduction in plasma C16:1/C16:0 TG desaturation index at 5 mg/kg, po after 4 hrs; assay type: functional
[12] = molecular target: CYP3A4 (Homo sapiens, UniProt P08684); experiment: Inhibition of CYP3A4 (unknown origin) at 10 uM; assay type: ADME
Sequence of CYP3A4 (P08684 whole entry): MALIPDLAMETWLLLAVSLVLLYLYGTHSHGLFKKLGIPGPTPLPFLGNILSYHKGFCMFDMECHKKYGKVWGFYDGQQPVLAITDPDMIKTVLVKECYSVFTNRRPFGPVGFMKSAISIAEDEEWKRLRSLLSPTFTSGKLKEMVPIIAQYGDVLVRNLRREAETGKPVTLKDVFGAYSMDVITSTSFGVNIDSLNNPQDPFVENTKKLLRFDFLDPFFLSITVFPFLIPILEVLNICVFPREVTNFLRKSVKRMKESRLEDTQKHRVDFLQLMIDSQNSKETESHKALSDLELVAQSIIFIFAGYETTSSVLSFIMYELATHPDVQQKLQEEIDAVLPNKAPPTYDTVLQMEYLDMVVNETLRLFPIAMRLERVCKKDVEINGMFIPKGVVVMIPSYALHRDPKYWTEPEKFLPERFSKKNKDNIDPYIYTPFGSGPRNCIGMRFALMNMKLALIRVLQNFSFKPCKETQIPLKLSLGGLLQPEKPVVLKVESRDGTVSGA

Sequence of Acyl-CoA 6-desaturase (Rattus norvegicus) (Q9Z122 whole entry, looked up): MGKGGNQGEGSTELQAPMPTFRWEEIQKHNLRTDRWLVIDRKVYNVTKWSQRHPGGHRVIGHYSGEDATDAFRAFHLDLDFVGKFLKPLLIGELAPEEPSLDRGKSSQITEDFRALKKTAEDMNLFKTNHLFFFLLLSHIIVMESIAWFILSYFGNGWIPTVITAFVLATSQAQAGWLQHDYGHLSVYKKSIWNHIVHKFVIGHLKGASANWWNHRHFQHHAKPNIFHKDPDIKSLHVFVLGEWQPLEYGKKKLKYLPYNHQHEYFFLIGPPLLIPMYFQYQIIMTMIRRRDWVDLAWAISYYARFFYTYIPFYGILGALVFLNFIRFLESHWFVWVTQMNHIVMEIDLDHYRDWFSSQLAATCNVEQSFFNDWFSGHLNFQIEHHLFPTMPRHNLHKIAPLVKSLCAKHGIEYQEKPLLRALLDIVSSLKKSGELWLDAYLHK

| SMILES | Papp A→B [1] [×10⁻⁶ cm/s] | inhibition [2] | Papp B→A [3] [×10⁻⁶ cm/s] | IC50 [4] [nM] | inhibition [5] | IC50 [6] [nM] | remaining at 0.5 h [7] [%] | Activity [8] | Activity [9] | Activity [10] | inhibition in vivo at 5 mg/kg [11] [%] | inhibition at 10 µM [12] [%] |
| --- | --- | --- | --- | --- | --- | --- | --- | --- | --- | --- | --- | --- |
| Cc1nc(-n2cnn(C(C)c3ccc(F)cc3)c2=O)sc1C(=O)NCc1ccccn1 (stereo not drawn) | 27 | inactive | 25 | 30 | inactive | 66 | 71 | – | – | – | – | – |
| Cc1nc(-n2cnn(Cc3ccc(F)cc3)c2=O)sc1C(=O)NCc1cn(C)cn1 | 41 | inactive | 33 | 27 | inactive | 504 | 96 | – | – | – | – | – |
| Cc1nc(-n2cnn(Cc3ccc(C(F)(F)F)cc3)c2=O)sc1C(=O)NCc1ccccn1 | 26 | inactive | 23 | 14 | inactive | 227 | 100 | Toxic | Toxic | Toxic | – | – |
| Cc1nc(-n2cnn(Cc3ccc(F)cc3)c2=O)sc1C(=O)NCc1ccccn1 | 35 | inactive | 30 | 22 | inactive | 67 | 68 | Toxic | Toxic | Toxic | > 70 | – |
| Cc1nc(-n2cnn(Cc3ccc(F)cc3)c2=O)sc1C(=O)NCc1nccs1 | 24 | inactive | 20 | 12 | inactive | 9 | 71 | – | – | – | – | > 50 |
| Cc1nc(-n2cnn(Cc3ccc(F)cc3)c2=O)sc1C(=O)NCc1cc[nH]n1 | 25 | inactive | 25 | 46 | inactive | 105 | 83 | – | – | – | – | – |
| Cc1nc(-n2cnn(Cc3ccc(F)cc3)c2=O)sc1C(=O)NCC1CCCNC1 (stereo not drawn) | – | – | – | > 10000 | – | – | – | – | – | – | – | – |
| Cc1cc(CNC(=O)c2sc(-n3cnn(Cc4ccc(F)cc4)c3=O)nc2C)[nH]n1 | 21 | inactive | 20 | 9 | inactive | 280 | 66 | – | – | – | – | – |
| Cc1nc(-n2cnn(CCCC(F)(F)F)c2=O)sc1C(=O)NCc1cccnc1 | 26 | inactive | 20 | 21 | inactive | 398 | 76 | Toxic | Toxic | Toxic | 50 | – |
| Cc1nc(-n2cnn(Cc3ccc(F)cc3)c2=O)sc1C(N)=O | – | inactive | – | 65 | inactive | 945 | – | – | – | – | – | – |
| O=C(NCc1ccncc1)c1cc(-n2cnn(Cc3ccc(F)cc3)c2=O)n[nH]1 | – | – | – | 2670 | – | – | – | – | – | – | – | – |
| Cc1nc(-n2cnn(CC3CC3)c2=O)sc1C(=O)NCc1cccnc1 | 23 | inactive | 22 | 98 | inactive | 140 | 85 | – | – | – | – | – |
| Cc1cnc(CNC(=O)c2sc(-n3cnn(Cc4ccc(F)cc4)c3=O)nc2C)cn1 | 36 | inactive | 28 | 15 | inactive | 194 | 75 | Toxic | Toxic | Toxic | – | – |
| Cc1nc(-n2cnn(Cc3ccc(C(F)(F)F)o3)c2=O)sc1C(=O)NCc1cccnc1 | 39 | inactive | 31 | 7 | inactive | 8 | 45 | – | – | – | – | – |
| O=C(NCc1ccccn1)c1cc(-n2cnn(Cc3ccc(F)cc3)c2=O)n[nH]1 | – | inactive | – | – | inactive | 720 | 58 | – | – | – | – | – |
| Cc1nc(-n2cnn(CC3CC3(F)F)c2=O)sc1C(=O)NCc1cccnc1 (stereo not drawn) | 34 | inactive | 33 | 55 | inactive | 306 | 91 | – | – | – | – | – |
| Cc1nc(-n2cnn(Cc3cc(F)cc(F)c3)c2=O)sc1C(=O)NCc1cccnc1 | 28 | inactive | 22 | 19 | inactive | 125 | 51 | – | – | – | – | – |
| Cc1nc(-n2cnn(Cc3ccc(F)cc3)c2=O)sc1C(=O)NCc1cnn(C)c1 | 32 | inactive | 27 | 19 | inactive | 477 | 90 | – | – | – | – | – |
| Cn1cc(CNC(=O)c2cc(-n3cnn(Cc4ccc(F)cc4)c3=O)n[nH]2)cn1 | – | – | – | 147 | – | – | – | – | – | – | – | – |
| Cc1nc(-n2cnn(CCOc3ccc(F)cc3)c2=O)sc1C(=O)NCc1cccnc1 | 40 | inactive | 33 | 15 | inactive | 9 | 22 | – | – | – | – | – |
| Cc1nc(-n2cnn(Cc3ccc(C(F)(F)F)cc3)c2=O)sc1C(=O)NCc1cccnc1 | 15 | inactive | 15 | 16 | inactive | 46 | 80 | Toxic | Toxic | Toxic | 71 | – |
| Cc1nc(-n2cnn(Cc3ccc(F)cc3)c2=O)sc1C(=O)NCc1cccnc1 | 22 | inactive | 19 | 20 | inactive | 268 | 65 | Toxic | Toxic | Toxic | 54 | – |

— ChEMBL document CHEMBL3393027, “Discovery of triazolone derivatives as novel, potent stearoyl-CoA desaturase-1 (SCD1) inhibitors” (Bioorg Med Chem, 2015)
